Key:
[1] = system: corneal neovascularization in New Zealand rabbits with alkali burn; experiment: Effects on corneal neovascularization in New Zealand rabbits with alkali burn; assay type: in vivo; settings: 1% eye drops 3 times a day; for Formation of new blood vessels in the cornea (slit-lamp photographs, FIG. 2), comparison of groups: preliminary conclusion from the figures; for Number of New Zealand rabbit eyes with appearance of fluorescein-stained spots / Number of New Zealand rabbit eyes with conjunctival congestion / Number of New Zealand rabbit eyes with corneal edema / Number of New Zealand rabbit eyes with neovascularization: 2 drops, 12 eyes per group (10 for SZY1905-P32)
Description: Twenty-four New Zealand rabbits were first given intravenous anesthesia with a chloralhydrate solution at a dose of about 0.5 mL/kg, followed by ocular surface anesthesia with 0.5% tetracaine hydrochloride eye drops. A piece of filter paper with a diameter of about 8 mm was immersed in 1 mol/L NaOH solution for 1 minute to reach saturation. The saturated filter paper was placed in the center of the cornea for 1 minute and then removed, immediately followed by repeatedly rinsing the cornea and the conjunctival sac with 0.9% sodium chloride injection for 1 minute. After that, tobramycin dexamethasone sodium phosphate eye drops were administered. After modeling, the twenty-four animals were divided into four groups, which were: Model group; SZY1905-P30 eye drops-administered group; […] The eye drops were administered 3 times a day, 2 drops each time. The Model group was not administered with any drugs. […] The cornea was then stained with fluorescein sodium, and observed under the slit-lamp microscope and photographed.

[2] = Testing of solubility at different pH values
Description: First, a series of solutions with pH-5-8 were prepared using phosphoric acid and NaOH.

[3] = Testing of stability at different pH values (HPLC); assay type: physicochemical
Description: 10 mg of the sample was weighed and 10 mL of an aqueous solution at a different pH value was added, followed by ultrasonic dissolving and filtration. HPLC testing was then performed.

[4] = 1st day of the modeling (0 day of administration)
[5] = 7th day of the modeling (6th day of administration)
[6] = 14th day of the modeling (13th day of administration)

| Structure (SMILES) | Formation of new blood vessels in the cornea (slit-lamp photographs, FIG. 2), comparison of groups [1] | Number of New Zealand rabbit eyes with appearance of fluorescein-stained spots [1, 4] | Number of New Zealand rabbit eyes with conjunctival congestion [1, 4] | Number of New Zealand rabbit eyes with corneal edema [1, 4] | Number of New Zealand rabbit eyes with neovascularization [1, 4] | Number of New Zealand rabbit eyes with appearance of fluorescein-stained spots [1, 5] | Number of New Zealand rabbit eyes with conjunctival congestion [1, 5] | Number of New Zealand rabbit eyes with corneal edema [1, 5] | Number of New Zealand rabbit eyes with neovascularization [1, 5] | Number of New Zealand rabbit eyes with appearance of fluorescein-stained spots [1, 6] | Number of New Zealand rabbit eyes with conjunctival congestion [1, 6] | Number of New Zealand rabbit eyes with corneal edema [1, 6] | Number of New Zealand rabbit eyes with neovascularization [1, 6] | Stability, 0 day (%) ([3]; Purified water, 10 mg in 10 mL) | Stability, 8th day (%) ([3]; Purified water, 10 mg in 10 mL) | Stability, 20th day (%) ([3]; Purified water, 10 mg in 10 mL) | Stability, 30th day (%) ([3]; Purified water, 10 mg in 10 mL) | Stability, 0 day (%) ([3]; pH = 5.0, 10 mg in 10 mL) | Stability, 8th day (%) ([3]; pH = 5.0, 10 mg in 10 mL) | Stability, 20th day (%) ([3]; pH = 5.0, 10 mg in 10 mL) | other results |
| --- | --- | --- | --- | --- | --- | --- | --- | --- | --- | --- | --- | --- | --- | --- | --- | --- | --- | --- | --- | --- | --- |
| C[C@H]1[C@H](OCCC[N+](C)(C)C)O[C@@H]2O[C@@]3(C)CC[C@H]4[C@H](C)CC[C@@H]1C24OO3 [SZY1905-P30, artemisinin quaternary ammonium propyl ether iodate] | can delay the rapid formation of new blood vessels significantly better than the SZY1905-P32 eye drops-administered group | 12 | 2 | 8 | 0 | 6 | 0 | 2 | 3 | 5 | 0 | 1 | 4 | 97.09% | 96.91% | 97.04% | 97.28% | 97.23% | 96.90% | 97.01% | solubility ([2]; aqueous solution adjusted with phosphoric acid and NaOH, 25 °C, pH 5, aqueous buffer): > 1000 µg/mL; solubility ([2]; aqueous solution adjusted with phosphoric acid and NaOH, 25 °C, pH 6, aqueous buffer): > 1000 µg/mL; solubility ([2]; aqueous solution adjusted with phosphoric acid and NaOH, 25 °C, pH 7, aqueous buffer): > 1000 µg/mL; solubility ([2]; aqueous solution adjusted with phosphoric acid and NaOH, 25 °C, pH 8, aqueous buffer): > 1000 µg/mL; solubility ([2]; purified water, 25 °C, water): > 10000 µg/mL; Stability, 30th day (%) ([3]; pH = 5.0, 10 mg in 10 mL): 97.25%; Stability, 0 day (%) ([3]; pH = 6.0, 10 mg in 10 mL): 97.24%; Stability, 8th day (%) ([3]; pH = 6.0, 10 mg in 10 mL): 96.95%; Stability, 20th day (%) ([3]; pH = 6.0, 10 mg in 10 mL): 96.81%; Stability, 30th day (%) ([3]; pH = 6.0, 10 mg in 10 mL): 97.23%; Stability, 0 day (%) ([3]; pH = 7.0, 10 mg in 10 mL): 97.34%; Stability, 8th day (%) ([3]; pH = 7.0, 10 mg in 10 mL): 97.09%; Stability, 20th day (%) ([3]; pH = 7.0, 10 mg in 10 mL): 96.97%; Stability, 30th day (%) ([3]; pH = 7.0, 10 mg in 10 mL): 97.26%; Stability, 0 day (%) ([3]; pH = 8.0, 10 mg in 10 mL): 97.22%; Stability, 8th day (%) ([3]; pH = 8.0, 10 mg in 10 mL): 97.13%; Stability, 20th day (%) ([3]; pH = 8.0, 10 mg in 10 mL): 96.98%; Stability, 30th day (%) ([3]; pH = 8.0, 10 mg in 10 mL): 97.13% |
| C[C@H]1[C@H](OCCCC[N+](C)(C)C)O[C@@H]2O[C@@]3(C)CC[C@H]4[C@H](C)CC[C@@H]1C24OO3.[I-] [SZY1905-P31, artemisinin quaternary ammonium butyl ether iodate] | can delay the rapid formation of new blood vessels significantly better than the SZY1905-P32 eye drops-administered group | 12 | 2 | 9 | 0 | 7 | 0 | 3 | 3 | 6 | 0 | 3 | 3 | 98.05% | 97.68% | 97.35% | 97.46% | 98.11% | 97.69% | 97.38% | solubility ([2]; Purified water, 25° C. (room temperature)): >10000 µg/mL; solubility ([2]; pH 5.0, 25° C. (room temperature)): >1000 µg/mL; solubility ([2]; pH 6.0, 25° C. (room temperature)): >1000 µg/mL; solubility ([2]; pH 7.0, 25° C. (room temperature)): >1000 µg/mL; solubility ([2]; pH 8.0, 25° C. (room temperature)): >1000 µg/mL; Stability, 30th day (%) ([3]; pH = 5.0, 10 mg in 10 mL): 97.48%; Stability, 0 day (%) ([3]; pH = 6.0, 10 mg in 10 mL): 98.16%; Stability, 8th day (%) ([3]; pH = 6.0, 10 mg in 10 mL): 97.64%; Stability, 20th day (%) ([3]; pH = 6.0, 10 mg in 10 mL): 97.39%; Stability, 30th day (%) ([3]; pH = 6.0, 10 mg in 10 mL): 97.48%; Stability, 0 day (%) ([3]; pH = 7.0, 10 mg in 10 mL): 98.26%; Stability, 8th day (%) ([3]; pH = 7.0, 10 mg in 10 mL): 97.85%; Stability, 20th day (%) ([3]; pH = 7.0, 10 mg in 10 mL): 97.57%; Stability, 30th day (%) ([3]; pH = 7.0, 10 mg in 10 mL): 97.58%; Stability, 0 day (%) ([3]; pH = 8.0, 10 mg in 10 mL): 98.14%; Stability, 8th day (%) ([3]; pH = 8.0, 10 mg in 10 mL): 97.64%; Stability, 20th day (%) ([3]; pH = 8.0, 10 mg in 10 mL): 97.33%; Stability, 30th day (%) ([3]; pH = 8.0, 10 mg in 10 mL): 97.49% |
| C[C@H]1[C@H](OCCCN)O[C@@H]2O[C@@]3(C)CC[C@H]4[C@H](C)CC[C@@H]1C24OO3 [SZY1905-P32, reference compound] | new vessels have spread to the entire cornea | 10 | 1 | 8 | 0 | 9 | 0 | 4 | 6 | 8 | 0 | 3 | 7 |  |  |  |  |  |  |  |  |

Source: US20250353861A1, “DERIVATIVE OF ARTEMISININ AND PREPARATION METHOD AND USE THEREOF” (SHANGHAI INNOFORTUNE BIOTECH CO. LTD., priority 2022, published 2025)
